Measurements taken from patent US10717746B2, “Chemical compounds” (ASTRAZENECA AB, priority 2015, dated 2020).
Counter-ions that a name gives are not always drawn. Like-named read-outs stand apart in the source and are kept apart here.

What was measured:
[1] = test system: phosphorylation of RNA Polymerase II (RNAPII) at the Ser2 site in MCF7 cells; experiment: MCF7 pSer2 RNAPII MOA assay (immunofluorescence); type: cell-based; conditions: 6-hr treatment, read-out: p-Ser 2 RNAPII (IC50)
Description: MCF7 pSer2 RNAPII MOA Assay
This is an immunofluorescence assay to determine the effect of CDK9 inhibitors on phosphorylation of RNA Polymerase II (RNAPII) at the Ser2 site in the breast cancer cell line, MCF7. On day one, 2500 MCF7 cells/well were seeded in 30 μl of growth media (RPMI+10% FBS+1% L-Glu+P/S) in 384-well black-wall clear-bottom plates, incubate plates overnight at 37° C. incubator. On the second day, the cells were treated with CDK9 inhibitors (7 point dose response ranging from 3 μM to 0.004 μM) using an ECHO liquid handler (Labcyte). After 6-hr treatment at 37° C. incubator, the cells were fixed with 30 µl/well 7.4% paraformaldehyde for 15 min at room temperature; the cells were washed twice with PBS, then permeabilized with 0.3% Triton X/PBS for 5 min at room temperature. After washing cells with PBS, the cells were incubated with 1:2000 diluted Anti-Ser2 Phospho-RNA pol II antibody (Covance MMS-129R) in 3% FBS/0.1% PBST overnight at 4° C. On the next day, the cells were washed twice with 0.1% PBST, then incubated with 1:1000 diluted Alexa Fluor 488 Goat-anti-mouse antibody (Life Technologies A-11001) and 1:4000 diluted DAPI at room temperature in dark. After one hour incubation, the cells were washed twice with 0.1% PBST, and once with PBS. The plates where sealed and read on an Acumen eX3 microplate cytometer (TTP Labtech) to assess phosphorylation level in each well.

CDK9/CycT1 [2] = molecular target: T1, CDK9/CycT1 (Homo sapiens (Human), UniProt P50750); experiment: CDK9 kinase assay, high ATP concentration (5 mM ATP); type: biochemical; conditions: 1.5 nM CDK9, read-out: CDK9 High ATP conc. (IC50)
T1 sequence (P50750 whole entry): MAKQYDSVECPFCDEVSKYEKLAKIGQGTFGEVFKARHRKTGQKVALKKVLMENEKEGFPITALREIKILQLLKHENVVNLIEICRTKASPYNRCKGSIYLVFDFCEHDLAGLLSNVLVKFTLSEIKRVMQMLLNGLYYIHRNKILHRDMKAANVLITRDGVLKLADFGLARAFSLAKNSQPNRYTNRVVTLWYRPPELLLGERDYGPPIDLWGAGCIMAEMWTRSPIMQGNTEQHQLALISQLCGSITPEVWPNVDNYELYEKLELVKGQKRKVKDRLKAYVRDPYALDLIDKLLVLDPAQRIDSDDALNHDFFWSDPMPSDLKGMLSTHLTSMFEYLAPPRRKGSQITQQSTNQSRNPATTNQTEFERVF
T1 sequence (O60563 whole entry partner): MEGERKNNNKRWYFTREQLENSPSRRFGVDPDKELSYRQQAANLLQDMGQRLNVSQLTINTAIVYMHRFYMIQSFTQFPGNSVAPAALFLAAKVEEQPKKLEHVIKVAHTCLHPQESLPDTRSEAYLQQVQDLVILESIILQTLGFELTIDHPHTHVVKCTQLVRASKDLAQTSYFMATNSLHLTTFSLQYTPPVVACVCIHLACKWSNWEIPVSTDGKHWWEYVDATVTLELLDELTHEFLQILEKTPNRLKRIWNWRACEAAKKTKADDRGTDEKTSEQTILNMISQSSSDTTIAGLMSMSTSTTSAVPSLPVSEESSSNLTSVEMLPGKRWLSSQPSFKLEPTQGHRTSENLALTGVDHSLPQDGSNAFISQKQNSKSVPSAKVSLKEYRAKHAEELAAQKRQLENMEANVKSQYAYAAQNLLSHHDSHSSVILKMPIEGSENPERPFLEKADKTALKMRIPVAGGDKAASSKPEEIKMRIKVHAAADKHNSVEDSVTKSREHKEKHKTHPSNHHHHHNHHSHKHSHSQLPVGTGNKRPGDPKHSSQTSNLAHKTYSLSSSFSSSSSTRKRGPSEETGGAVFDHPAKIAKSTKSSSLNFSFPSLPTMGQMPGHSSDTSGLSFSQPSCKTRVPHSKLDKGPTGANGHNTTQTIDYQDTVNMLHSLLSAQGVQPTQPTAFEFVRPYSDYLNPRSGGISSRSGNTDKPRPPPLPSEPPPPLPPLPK
Description: (§1) Activity of CDK9 was determined in-vitro using a mobility shift assay on a Caliper LC3000 reader (Caliper/PerkinElmer), which measures fluorescence of a phosphorylated and unphosphorylated fluorescent peptide substrate and calculates a ratiometric value to determine percent turnover. Phosphorylation of the peptide in the presence and absence of the compound of interest was determined. Enzyme/substrate/adenosine triphosphate (ATP) mix (3 nM CDK9/CycT1, 6 μM ATP, 1.5 μM CDK9 peptide substrate (FITC-X-GSRTPMY-NH2 (X: epsilon aminocaproic acid)), 50 mM HEPES (pH7.2), 1 mM dithiothreitol, 0.01% tween 20, 50 μg/mL bovine serum albumin, (final assay concentration)) (5 μl) was preincubated with 2 μl of compound for 15 minutes at 25° C. Reactions were initiated with 5 μl of 24 mM MgCl2 (10 mM final assay concentration) in buffer (50 mM HEPES (pH7.2), 1 mM dithiothreitol, 0.01% tween 20, 50 μg/mL bovine serum albumin, (final assay concentration) and incubated at 25° C. for 90 minutes and reactions were stopped by addition of 5 μl of Stop mix consisting of 65 mM HEPES (pH7.2), 35.5 mM EDTA, 0.227% Coatin Reagent 3 (Caliper/PerkinElmer), and 0.003% Tween. Phosphorylated and unphosphorylated substrate was detected by a Caliper LC3000 reader (Caliper/PerkinElmer) in the presence of separation buffer consisting of 100 mM HEPES (pH7.2), 15.8 mM EDTA, 0.1% Coatin Reagent 3 (Caliper/PerkinElmer), 0.015% Brij-35, 5% DMSO, and 5.6 mM MgCl2. CDK9 enzyme was acquired from Carna Biosciences (Catalogue number 04-110), the CDK9 peptide substrate was acquired from Intonation (Boston, Mass.; Custom-made).
High ATP assays were run the same way with the following modifications: the final assay concentration of CDK9 was 1.5 nM and the final assay concentration of ATP was 5 mM.

CDK9/CycT1 [3] = molecular target: T1, CDK9/CycT1; experiment: CDK9 kinase assay, ATP concentration at Km (mobility shift, Caliper LC3000); type: biochemical; conditions: 6 μM ATP, 3 nM CDK9/CycT1; read-out: CDK9 ATP conc. at Km (IC50)
Description: as §1

MV411 cells = experiment: MV411 caspase activity assay (Caspase-Glo 3/7); type: cell-based; conditions: Homo sapiens, MV4-11, 6 h, 6-hr treatment, caspase 3/7 induction
Description: MV411 Caspase Activity Assay
This is a cell assay to measure the induction of caspase activity in the acute myeloid leukemia cell line, MV411 after 6-hr treatment with CDK9 inhibitors. On the first day, 3000 MV411 cells/well were seeded in 50 μl of growth media (IMDM+10% FBS+2% L-Glu+P/S) in 384-well white plates, incubate plates in 37° C. incubator overnight. […] After 6 hour incubation in 37° C. incubator, 25 μl of Caspase-Glo 3/7 reagent (Promega) per well was added into each well, and plates were incubated at room temperature for 30 min in dark. The plates were read on an Infinite M200 microplate reader (Tecan) with a 100 ms integration time.

| IC50 ([1]; Homo sapiens, MCF7, 6 h) | IC50 (CDK9/CycT1 [2]) | IC50 (CDK9/CycT1 [3]) | IC50 (MV411 cells) | IC50 [1] | Compound |
| --- | --- | --- | --- | --- | --- |
| > 1950 nM | 2130 nM | 28 nM | 2520 nM | – | CC(=O)N[C@H]1CCC[C@H](C(=O)Nc2cc(-c3cnn4c3CC(C)(C)C4)c(F)cn2)C1 (relative stereo) [Example 84, (1S,3S)-3-acetamido-N-(4-(5,5-dimethyl-5,6-dihydro-4H-pyrrolo[1,2-b]pyrazol-3-yl)-5-fluoropyridin-2-yl)cyclohexane-1-carboxamide] |
| – | 27 nM | < 3 nM | – | 76 nM | CC(=O)N[C@@H]1CCC[C@H](C(=O)Nc2cc(-c3cnn4c3CC(C)C4)c(Cl)cn2)C1 (single isomer, unassigned) [Example 41] |
| 36 nM | 26 nM | < 3 nM | 92 nM | – | CC(=O)N[C@@H]1CCC[C@H](C(=O)Nc2cc(-c3cnn4c3CC(C)C4)c(Cl)cn2)C1 (single isomer, unassigned) [Example 42] |
| – | – | – | – | > 2440 nM | CC(=O)N[C@H]1CCC[C@H](C(=O)Nc2cc(-c3cnn4c3CC(C)(C)C4)c(Cl)cn2)C1 (single isomer, unassigned) [Example 59, trans-3-acetamido-N-(5-chloro-4-(5,5-dimethyl-5,6-dihydro-4H-pyrrolo[1,2-b]pyrazol-3-yl)pyridin-2-yl)cyclohexanecarboxamide] |
| – | – | – | – | > 3000 nM | CC(=O)N[C@H]1CCC[C@H](C(=O)Nc2cc(-c3cnn4c3CCCC4)c(Cl)cn2)C1 (single isomer, unassigned) [Example 61, trans-3-acetamido-N-(5-chloro-4-(4,5,6,7-tetrahydropyrazolo[1,5-a]pyridin-3-yl)pyridin-2-yl)cyclohexanecarboxamide] |
| – | – | – | – | 333 nM | CC(=O)N[C@H]1CCC[C@H](C(=O)Nc2cc(-c3cnn4c3CCCC4)c(Cl)cn2)C1 (single isomer, unassigned) [Example 62, trans-3-acetamido-N-(5-chloro-4-(4,5,6,7-tetrahydropyrazolo[1,5-a]pyridin-3-yl)pyridin-2-yl)cyclohexanecarboxamide] |
| – | < 4 nM | < 3 nM | – | 37 nM | CC(=O)N[C@@H]1CCC[C@H](C(=O)Nc2cc(-c3cnn4c3CC(C)CC4)c(Cl)cn2)C1 (single isomer, unassigned) [Example 65] |
| 131 nM | 53 nM | < 3 nM | – | – | CC(=O)N[C@@H]1CCC[C@H](C(=O)Nc2cc(-c3cnn4c3CCC(C)C4)c(Cl)cn2)C1 (single isomer, unassigned) [Example 68] |
| – | 246 nM | 5 nM | – | 193 nM | CC(=O)N[C@@H]1CCC[C@H](C(=O)Nc2cc(-c3cnn4c3CCC(C)C4)c(Cl)cn2)C1 (single isomer, unassigned) [Example 69] |
| – | 20 nM | < 3 nM | – | 73 nM | COC1CCc2c(-c3cc(NC(=O)[C@H]4CCC[C@@H](NC(C)=O)C4)ncc3Cl)cnn2C1 (single isomer, unassigned) [Example 70] |
| – | 1720 nM | 16 nM | – | > 2350 nM | COC1CCc2c(-c3cc(NC(=O)[C@H]4CCC[C@@H](NC(C)=O)C4)ncc3Cl)cnn2C1 (single isomer, unassigned) [Example 71] |
| – | 39 nM | < 3 nM | – | 218 nM | COC1CCn2ncc(-c3cc(NC(=O)[C@H]4CCC[C@@H](NC(C)=O)C4)ncc3Cl)c2C1 (single isomer, unassigned) [Example 73] |
| – | < 3 nM | < 3 nM | – | 10 nM | CC(=O)N[C@@H]1CCC[C@H](C(=O)Nc2cc(-c3cnn4c3C(O)C(C)(C)C4)c(Cl)cn2)C1 (single isomer, unassigned) [Example 79] |
| – | 135 nM | 4 nM | – | 247 nM | CC(=O)N[C@@H]1CCC[C@H](C(=O)Nc2cc(-c3cnn4c3C(O)C(C)(C)C4)c(Cl)cn2)C1 (single isomer, unassigned) [Example 80] |
| 130 nM | – | – | 120 nM | – | CC(=O)N[C@@H]1CCC[C@H](C(=O)Nc2cc(-c3cnn4c3CCCC4)c(Cl)cn2)C1 [Example 2, (1S,3R)-3-acetamido-N-(5-chloro-4-(4,5,6,7-tetrahydropyrazolo[1,5-a]pyridin-3-yl)pyridin-2-yl)cyclohexanecarboxamide] |
| > 3000 nM | – | – | 4090 nM | – | CC(=O)N[C@H]1CCC[C@@H](C(=O)Nc2cc(-c3cnn4c3CCCC4)c(Cl)cn2)C1 [Example 9, (1R,3S)-3-acetamido-N-(5-chloro-4-(4,5,6,7-tetrahydropyrazolo[1,5-a]pyridin-3-yl)pyridin-2-yl)cyclohexanecarboxamide] |
| 23 nM | – | – | 14 nM | – | CC(=O)N[C@@H]1CCC[C@H](C(=O)Nc2cc(-c3cnn4c3CC(C)(C)C4)c(Cl)cn2)C1 [Example 14, (1S,3R)-3-acetamido-N-(5-chloro-4-(5,5-dimethyl-5,6-dihydro-4H-pyrrolo[1,2-b]pyrazol-3-yl)pyridin-2-yl)cyclohexanecarboxamide] |
| 36 nM | – | – | 54 nM | – | CC(=O)N[C@@H]1CCC[C@H](C(=O)Nc2cc(-c3cnc4n3CC(C)(C)C4)c(Cl)cn2)C1 [Example 22, (1S,3R)-3-acetamido-N-(5-chloro-4-(6,6-dimethyl-6,7-dihydro-5H-pyrrolo[1,2-a]imidazol-3-yl)pyridin-2-yl)cyclohexanecarboxamide] |
| 1800 nM | 2640 nM | 36 nM | – | – | N[C@@H]1CCC[C@H](C(=O)Nc2cc(-c3cnn4c3CCCC4)c(Cl)cn2)C1 [Example 31b, (1S,3R)-3-amino-N-(5-chloro-4-(4,5,6,7-tetrahydropyrazolo[1,5-a]pyridin-3-yl)pyridin-2-yl)cyclohexanecarboxamide dihydrochloride] |
| 307 nM | – | – | 416 nM | – | CC(=O)N[C@H]1CCC[C@@H](C(=O)Nc2cc(-c3cnn4c3CC(C)(C)C4)c(Cl)cn2)C1 [Example 43, (1R,3S)-3-acetamido-N-(5-chloro-4-(5,5-dimethyl-5,6-dihydro-4H-pyrrolo[1,2-b]pyrazol-3-yl)pyridin-2-yl)cyclohexanecarboxamide] |
| 40 nM | – | – | 74 nM | – | CC(=O)N[C@@H]1CCC[C@H](C(=O)Nc2cc(-c3cnn4c3CC(C)(C)C4)c(C)cn2)C1 [Example 47, (1S,3R)-3-acetamido-N-(4-(5,5-dimethyl-5,6-dihydro-4H-pyrrolo[1,2-b]pyrazol-3-yl)-5-methylpyridin-2-yl)cyclohexanecarboxamide] |
| – | 4 nM | < 3 nM | – | – | CC1(C)Cc2c(-c3cc(NC(=O)[C@H]4CCC[C@@H](NC(=O)CCO)C4)ncc3Cl)cnn2C1 [Example 52, (1S,3R)—N-(5-chloro-4-(5,5-dimethyl-5,6-dihydro-4H-pyrrolo[1,2-b]pyrazol-3-yl)pyridin-2-yl)-3-(3-hydroxypropanamido)cyclohexanecarboxamide] |
